Experimental data as given in the CheMixHub viscosity set.

Assay: xn = mol fraction of the nth substance listed
Conditions: 101 kPa

CS(C)=O + CC#N
viscosity [mPa·s]
Conditions | 298 K | 298.15 K | 303.15 K | 308 K | 308.15 K | 313.15 K | 318 K | 318.15 K
x1 = 0.2 | 0.5206 | 0.477 | – | – | – | – | 0.3814 | –
x1 = 0.4 | 0.8409 | 0.687 | – | 0.6302 | – | – | 0.4513 | –
x1 = 0.6 | 1.16 | 0.987 | – | 0.8402 | – | – | – | –
x1 = 0.8 | 1.42 | 1.42 | – | 1.161 | – | – | 0.8203 | –
x2 = 0.0249 | – | 1.911 | 1.762 | – | 1.61 | 1.484 | – | 1.348
x2 = 0.0518 | – | 1.824 | 1.684 | – | 1.544 | 1.425 | – | 1.295
x2 = 0.0759 | – | 1.75 | 1.617 | – | 1.485 | 1.371 | – | 1.247
x2 = 0.1079 | – | 1.658 | 1.531 | – | 1.405 | 1.298 | – | 1.18
x2 = 0.157 | – | 1.527 | 1.406 | – | – | – | – | 1.082
x2 = 0.1998 | – | 1.422 | 1.306 | – | 1.194 | 1.098 | – | 1
x2 = 0.2609 | – | 1.281 | – | – | 1.066 | 0.9759 | – | 0.8875
x2 = 0.3034 | – | 1.188 | 1.085 | – | 0.9838 | 0.898 | – | 0.8161
x2 = 0.3548 | – | 1.082 | 0.9867 | – | 0.8905 | 0.8098 | – | 0.7348
x2 = 0.411 | – | 0.9742 | 0.8848 | – | 0.7978 | 0.7219 | – | 0.6547
x2 = 0.4696 | – | 0.8699 | 0.7875 | – | 0.7092 | 0.6398 | – | 0.5794
x2 = 0.5084 | – | 0.8053 | 0.7285 | – | 0.6554 | 0.591 | – | 0.5348
x2 = 0.5566 | – | 0.7292 | 0.6595 | – | 0.5949 | 0.5366 | – | 0.4864
x2 = 0.6053 | – | 0.6586 | 0.5945 | – | 0.5379 | 0.4862 | – | 0.4403
x2 = 0.6666 | – | 0.5821 | 0.5266 | – | 0.4786 | 0.435 | – | 0.3971
x2 = 0.7114 | – | 0.5345 | 0.4841 | – | 0.4428 | 0.4044 | – | 0.37
x2 = 0.7688 | – | 0.4819 | 0.4392 | – | 0.4048 | 0.3727 | – | 0.3423
x2 = 0.8081 | – | 0.4514 | 0.4129 | – | 0.3833 | 0.3554 | – | 0.3298
x2 = 0.851 | – | 0.4225 | 0.3905 | – | 0.3645 | 0.3396 | – | 0.3178
x2 = 0.9009 | – | 0.3934 | 0.368 | – | 0.3459 | 0.3257 | – | 0.3062
x2 = 0.9502 | – | 0.3658 | 0.3478 | – | 0.3285 | – | – | –
